Measured values taken from patent publication US20260139254A1, “INTERFERING RNA FOR INHIBITING TOP1 GENE EXPRESSION AND USE THEREOF” (JENKEM TECHNOLOGY CO., LTD. (BEIJING), priority 2022, published 2026).
[Ψ] = pseudouridine; d = 2'-deoxy (DNA); r = 2'-OH (RNA)

How the values were obtained:
[1] = Toxicity of LNP-siTOP1 and irinotecan on HCT116 cells (CCK-8 cell viability); assay type: cell-based, human; settings: human, HCT116 colon cancer cells, HCT116, 72 h
Method: (§1) After 72 h of transfection, 10 μL of CCK-8 solution was added to each well, and the cells were cultured in the incubator with 5% CO2 at 37° C. for another 4 h. The absorbance value at 450 nm was measured using a microplate reader. Cell viability was calculated according to the following formula: […]
(§2) On the day before transfection, HCT116 human colon cancer cells were seeded into a 96-well cell culture plate at 5000 cells/well, the culture medium being IMDM containing 10% FBS and 1% Penicillin-Streptomycin, and after plating, the cell culture plate was placed in an incubator with 5% CO2 at 37° C. for 24 h to allow the cells to adhere to the wall. 3 replicate wells were made for each group. On the day of transfection, the culture medium was changed to an IMDM culture medium without antibiotics (containing 10% FBS). LNP-siTOP1-1604 diluted with Opti-MEM culture medium was added, and the working concentrations of the siRNA were 500, 200, 100, 50, 20, and 5 nM. The control groups were Blank (Opti-MEM at the equal volume) and the positive control drug, irinotecan, at concentrations of 500, 200, 100, 50, 20, 5, and 1 μM. The cell culture plate was placed in the incubator with 5% CO2 at 37° C., and the cells were cultured for another 72 h. The cell viability was detected according to the method in Example 3 (Table 10). Fitting was performed using Graphpad software.

[2] = system: HCT116 human colon cancer cells; experiment: as above; assay type: cell-based; settings: Homo sapiens, HCT-116; HCT116, 72 h, CCK-8
Method: as §1, §2

[3] = system: TOP1 mRNA; experiment: Inhibitory effects of modified sequences of siTOP1-1604 on TOP1 mRNA in PC-3 cells; assay type: cell-based, human; settings: PC-3, siRNA 50 nM
Method: PC-3 human prostate cancer cells were transfected with the modified siTOP1 according to the method in Example 2 at a siRNA working concentration of 50 nM. TOP1 mRNA levels were detected 48 h after the transfection. The control groups were Blank (Opti-MEM at the equal volume), Lipofectamine™ RNAiMAX (Lipo) transfection reagent, and the positive control unmodified siTOP-1604.

Compound | viability at 72 h, 1 µM ([1]; 1 μM) | viability at 72 h, 5 µM ([1]; 5 μM) | viability at 72 h, 20 µM ([1]; 20 μM) | viability at 72 h, 50 µM ([1]; 50 μM) | viability at 72 h, 100 µM ([1]; 100 μM) | viability at 72 h, 200 µM ([1]; 200 μM) | viability at 72 h, 500 µM ([1]; 500 μM) | IC50 [2] | Expression of TOP1 mRNA inhibited to ([3]; 48 h, compared to the control groups) | Relative expression level, mean value ([3]; 48 h after transfection, Blank = 100.00)
CCc1c2c(nc3ccc(OC(=O)N4CCC(N5CCCCC5)CC4)cc13)-c1cc3c(c(=O)n1C2)COC(=O)[C@]3(O)CC [Irinotecan] | 109% | 55.4% | 31.8% | 16.9% | 9.69% | 8.18% | 11.9% | 9.33 µM |  | 
siTOP1-1604-m4: Pseudouridine-modified siTOP1-1604; sense strand SEQ ID NO: 55, antisense strand SEQ ID NO: 56 (sense GUGUGGACAAGAUCCGGAATT; antisense UUCCGGAUCUUGUCCACACTT; sense: sugars from the 5' end r19 d2, [Ψ] at 2, 4, 13, backbone not given here; antisense: sugars from the 5' end r19 d2, [Ψ] at 1, 2, 8, 10, 11, 13, backbone not given here) |  |  |  |  |  |  |  |  | 4.3% | 4.30
